# Results from article PMC10584170, “Machine learning-based phenotypic imaging to characterise the targetable biology of Plasmodium falciparum male gametocytes for the development of transmission-blocking antimalarials” (PLOS Pathogens, 2023).
# Like-named read-outs stand apart in the source and are kept apart here.
# Assays:
# [1] = system: P. falciparum female gametocytes; experiment: P. falciparum Dual Gamete Formation Assay (PfDGFA), female readout (Pfs25-positive female gametes); assay type: cell-based, Plasmodium falciparum NF54; conditions: for Selectivity ratio F: HepG2 Tox50 versus female IC50; for IC50: PfDGFA, 24 h incubation with gametocytes before induction, female gamete readout, read-out: Female IC50; for HitlevelF: number of replicates with >50% inhibition in the female readout
# In short: (§1)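 Two sex-specific readouts come from one well: male exflagellation centres recorded by brightfield video right after activation, and female gametes scored by Cy3-anti-Pfs25 fluorescence after 24 h at 28°C.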
# [2] = system: HepG2 cells; experiment: HepG2 cytotoxicity counter-screen; conditions: cytotoxic activity against HepG2 cells
# [3] = system: P. falciparum male gametocytes; experiment: P. falciparum Dual Gamete Formation Assay (PfDGFA), male readout (exflagellation); assay type: cell-based, Plasmodium falciparum NF54; conditions: for Selectivity Ratio M: HepG2 Tox50 versus male IC50; for IC50: PfDGFA, 24 h incubation with gametocytes before induction, exflagellation readout, read-out: Male IC50; for HitlevelM: number of replicates with >50% inhibition in the male readout
# In short: as §1
# [4] = Plasmodium falciparum, PfDGFA at 2µM, 24h preincubation with gametocytes, average of replicates, read-out: Average inhibition female (%)
# [5] = Plasmodium falciparum, PfDGFA at 2µM, 24h preincubation with gametocytes, replicate R1, read-out: % inhibition female (individual replicates) R1
# [6] = Plasmodium falciparum, PfDGFA at 2µM, 24h preincubation with gametocytes, replicate R2, read-out: % inhibition female (individual replicates) R2
# [7] = Plasmodium falciparum, PfDGFA at 2µM, 24h preincubation with gametocytes, replicate R3, read-out: % inhibition female (individual replicates) R3
# [8] = Plasmodium falciparum, PfDGFA at 2µM, 24h preincubation with gametocytes, replicate R4, read-out: % inhibition female (individual replicates) R4
# [9] = Plasmodium falciparum, PfDGFA at 2µM, 24h preincubation with gametocytes, average of replicates, read-out: Average inhibition male (%)
# [10] = Plasmodium falciparum, PfDGFA at 2µM, 24h preincubation with gametocytes, replicate R1, read-out: % inhibition male (individual replicates) R1
# [11] = Plasmodium falciparum, PfDGFA at 2µM, 24h preincubation with gametocytes, replicate R2, read-out: % inhibition male (individual replicates) R2
# [12] = Plasmodium falciparum, PfDGFA at 2µM, 24h preincubation with gametocytes, replicate R3, read-out: % inhibition male (individual replicates) R3
# [13] = Plasmodium falciparum, PfDGFA at 2µM, 24h preincubation with gametocytes, replicate R4, read-out: % inhibition male (individual replicates) R4
# [14] = 2µM, 24h preincubation with gametocytes, average of replicates
# [15] = 2µM, 24h preincubation with gametocytes, replicate R1
# [16] = 2µM, 24h preincubation with gametocytes, replicate R3
# [17] = 2µM, 24h preincubation with gametocytes, replicate R4
# [18] = PfDGFA at 2µM, 24h preincubation with gametocytes, average of replicates
# [19] = PfDGFA at 2µM, 24h preincubation with gametocytes, replicate R1
# [20] = PfDGFA at 2µM, 24h preincubation with gametocytes, replicate R3
# [21] = PfDGFA at 2µM, 24h preincubation with gametocytes, replicate R4
SMILES,Selectivity ratio F [1],"inhibition at 2 µM [1, 4]","inhibition at 2 µM [1, 5]","inhibition at 2 µM [1, 6]","inhibition at 2 µM [1, 7]","inhibition at 2 µM [1, 8]",IC50 ([1]; Plasmodium falciparum),HitlevelF ([1]; 2µM),Tox50 [2],Selectivity Ratio M [3],"inhibition at 2 µM [3, 9]","inhibition at 2 µM [3, 10]","inhibition at 2 µM [3, 11]","inhibition at 2 µM [3, 13]",IC50 ([3]; Plasmodium falciparum),HitlevelM ([3]; 2µM),IC50 [1],IC50 [3],other results
FC(F)(F)c1ccc2[nH]c(-c3ccc(-c4ccc(CNCCN5CCNCC5)cc4)cc3)nc2c1.O=C(O)C(F)(F)F [TCMDC-132865],2.26,29.2%,27.7%,31%,31%,27.1%,6.08 µM,0,13.76 µM,9.44,69.5%,60.9%,79.2%,98.9%,1.46 µM,3,,,"inhibition at 2 µM [3, 12]: 39.1%"
Fc1ccc2[nH]c(-c3ccc(-c4ccc(CNCCN5CCNCC5)cc4)cc3)nc2c1.O=C(O)C(F)(F)F [TCMDC-132866],2.88,11.4%,18%,1.6%,12.7%,13.5%,> 10 µM,0,28.84 µM,12.07,63.5%,59%,70.4%,92.2%,2.39 µM,3,,,"inhibition at 2 µM [3, 12]: 32.6%"
Cc1cccc2nc(-c3ccc(-c4cccc(CNCCN5CCNCC5)c4)cc3)[nH]c12.O=C(O)C(F)(F)F [TCMDC-132867],2.66,,,,,,9.11 µM,,24.28 µM,12.97,,,,,1.87 µM,,,,"HitlevelF ([1]; 2µM, 24h preincubation): 1; inhibition at 2 µM ([1]; Plasmodium falciparum, 2µM, 24h preincubation with gametocytes prior to induction of gametogenesis, average of replicates, read-out: Average inhibition female (%)): 20.3%; inhibition at 2 µM ([1]; Plasmodium falciparum, 2µM, 24h preincubation with gametocytes prior to induction of gametogenesis, replicate R1, read-out: % inhibition female (individual replicates) R1): 12%; inhibition at 2 µM ([1]; Plasmodium falciparum, 2µM, 24h preincubation with gametocytes prior to induction of gametogenesis, replicate R2, read-out: % inhibition female (individual replicates) R2): 8.9%; inhibition at 2 µM ([1]; Plasmodium falciparum, 2µM, 24h preincubation with gametocytes prior to induction of gametogenesis, replicate R3, read-out: % inhibition female (individual replicates) R3): 0.36%; inhibition at 2 µM ([1]; Plasmodium falciparum, 2µM, 24h preincubation with gametocytes prior to induction of gametogenesis, replicate R4, read-out: % inhibition female (individual replicates) R4): 60%; HitlevelM ([3]; 2µM, 24h preincubation): 3; inhibition at 2 µM ([3]; Plasmodium falciparum, 2µM, 24h preincubation with gametocytes prior to induction of gametogenesis, average of replicates, read-out: Average inhibition male (%)): 46.3%; inhibition at 2 µM ([3]; Plasmodium falciparum, 2µM, 24h preincubation with gametocytes prior to induction of gametogenesis, replicate R1, read-out: % inhibition male (individual replicates) R1): 51.3%; inhibition at 2 µM ([3]; Plasmodium falciparum, 2µM, 24h preincubation with gametocytes prior to induction of gametogenesis, replicate R2, read-out: % inhibition male (individual replicates) R2): 52.2%; inhibition at 2 µM ([3]; Plasmodium falciparum, 2µM, 24h preincubation with gametocytes prior to induction of gametogenesis, replicate R3, read-out: % inhibition male (individual replicates) R3): 9.9%; inhibition at 2 µM ([3]; Plasmodium falciparum, 2µM, 24h preincubation with gametocytes prior to induction of gametogenesis, replicate R4, read-out: % inhibition male (individual replicates) R4): 71.6%"
Fc1ccc2[nH]c(-c3ccc(-c4ccc(CNCCN5CCNCC5)cc4)s3)nc2c1.O=C(O)C(F)(F)F [TCMDC-132869],3.35,6.1%,10.8%,10.6%,-3.4%,6.4%,7.18 µM,0,24.05 µM,12.22,66.3%,55.2%,84.7%,92.9%,1.97 µM,3,,,"inhibition at 2 µM [3, 12]: 32.6%"
FC(F)(F)c1ccc2[nH]c(-c3cccc(-c4cccc(CNCCN5CCNCC5)c4)c3)nc2c1.O=C(O)C(F)(F)F [TCMDC-132871],1.27,,,,,,,,10.12 µM,6.65,,,,,,,7.94 µM,1.52 µM,"Average inhibition female (%) [1, 14]: 25.3%; % inhibition female (individual replicates) R1 [1, 15]: 24.1%; % inhibition female (individual replicates) R3 [1, 16]: 40.5%; % inhibition female (individual replicates) R4 [1, 17]: 19.2%; Average inhibition male (%) [3, 14]: 95.8%; % inhibition male (individual replicates) R1 [3, 15]: 94.1%; % inhibition male (individual replicates) R3 [3, 16]: 90.3%; % inhibition male (individual replicates) R4 [3, 17]: 100.2%"
FC(F)(F)c1ccc2[nH]c(-c3cccc(-c4ccc(CNCCN5CCNCC5)cc4)c3)nc2c1.O=C(O)C(F)(F)F [TCMDC-132872],2.18,,,,,,,0,14.49 µM,9.17,,,,,,3,6.65 µM,1.58 µM,"Average inhibition female (%) [1, 18]: 30.3%; % inhibition female (individual replicates) R1 [1, 19]: 24.6%; % inhibition female (individual replicates) R3 [1, 20]: 21.1%; % inhibition female (individual replicates) R4 [1, 21]: 42.9%; Average inhibition male (%) [3, 18]: 72.1%; % inhibition male (individual replicates) R1 [3, 19]: 71.0%; % inhibition male (individual replicates) R3 [3, 20]: 37.9%; % inhibition male (individual replicates) R4 [3, 21]: 97.6%"
COc1ccc(-c2cnc(N)c(-c3ccc(C(N)=O)cc3)c2)cc1OC [TCMDC-133349],1.51,9.1%,0.18%,11.3%,7.9%,17.1%,> 10 µM,0,15.14 µM,54.05,71.3%,80.4%,82.4%,51.1%,0.28 µM,3,,,
CNC(=O)c1ccccc1Nc1nc(Nc2ccc(CCN3CCN(C)CC3)cc2)ncc1Cl.Cl [TCMDC-133800],0.03,,,,,,,,0.33 µM,5.19,,,,,,,,0.06 µM,"Average inhibition female (%) [1, 14]: 7.2%; % inhibition female (individual replicates) R1 [1, 15]: 6.8%; % inhibition female (individual replicates) R3 [1, 16]: -10.4%; % inhibition female (individual replicates) R4 [1, 17]: 12.4%; Average inhibition male (%) [3, 14]: 96.7%; % inhibition male (individual replicates) R1 [3, 15]: 94.6%; % inhibition male (individual replicates) R3 [3, 16]: 98.6%; % inhibition male (individual replicates) R4 [3, 17]: 96.9%"
CNC(=O)c1ccccc1Nc1nc(Nc2cccc(CS(C)(=O)=O)c2)ncc1C.O=CO [TCMDC-133809],0.1,,,,,,,,1.03 µM,6.79,,,,,,,,0.15 µM,"Average inhibition female (%) [1, 14]: -2.2%; % inhibition female (individual replicates) R1 [1, 15]: -7.2%; % inhibition female (individual replicates) R3 [1, 16]: 6.2%; % inhibition female (individual replicates) R4 [1, 17]: -11.5%; Average inhibition male (%) [3, 14]: 90.9%; % inhibition male (individual replicates) R1 [3, 15]: 93.6%; % inhibition male (individual replicates) R3 [3, 16]: 92.1%; % inhibition male (individual replicates) R4 [3, 17]: 84.9%"
CN1CCC(N2CCN(Cc3cccc(-c4ccc(-c5nc6cc(C(F)(F)F)ccc6[nH]5)cc4)c3)CC2)CC1.O=C(O)C(F)(F)F [TCMDC-133842],1.63,,,,,,,1,5.34 µM,3.46,,,,,,4,3.27 µM,1.54 µM,"Average inhibition female (%) [1, 18]: 30.2%; % inhibition female (individual replicates) R1 [1, 19]: 16.8%; % inhibition female (individual replicates) R3 [1, 20]: 18.6%; % inhibition female (individual replicates) R4 [1, 21]: 31.1%; Average inhibition male (%) [3, 18]: 86.6%; % inhibition male (individual replicates) R1 [3, 19]: 86.4%; % inhibition male (individual replicates) R3 [3, 20]: 71.8%; % inhibition male (individual replicates) R4 [3, 21]: 92.9%"
Fc1ccc2[nH]c(-c3ccc(-c4ccc(CN5CCC(CCN6CCCCC6)CC5)cc4)s3)nc2c1.O=C(O)C(F)(F)F [TCMDC-133932],1.07,,,,,,,1,4.83 µM,3.55,,,,,,4,4.5 µM,1.36 µM,"Average inhibition female (%) [1, 18]: 38.7%; % inhibition female (individual replicates) R1 [1, 19]: 37.3%; % inhibition female (individual replicates) R3 [1, 20]: 32.0%; % inhibition female (individual replicates) R4 [1, 21]: 25.9%; Average inhibition male (%) [3, 18]: 85.6%; % inhibition male (individual replicates) R1 [3, 19]: 90.7%; % inhibition male (individual replicates) R3 [3, 20]: 68.9%; % inhibition male (individual replicates) R4 [3, 21]: 86.9%"
